The target in one assay is FcRn. The experiment in a line: KD [nM]. From the text: Errors are standard errors from fitting using FortéBio data analysis software 9.1. Fitting quality is characterized by R^2. Data is derived from BLI sensorgrams represented in FIG. 22 and FIG. 23.
For assay [1], the system named is HER2 positive (SKBR-3, HCC-1954) and HER2 negative (MDA-MB-468) cells. The experiment in a line: Cellular binding analysis by flow cytometry. Type of assay: cell-based, human. As to conditions: 100 nM, 60 min, 4° C. As to the method:
Relative order of fluorescence intensity of distinct variants on HER2 positive cells correspond to their HER2 binding affinity. Cells were incubated with 100 nM of Fcab/antibody for 60 min at 4° C., washed twice with PBS-1% BSA, incubated for 30 min with 500 nM of AF488-labeled detection antibody (Jackson ImmunoResearch) at 4° C. in darkness, washed twice with PBS-1% BSA, and finally fluorescence intensity was measured applying an Attune NxT flow cytometer (Invitrogen™).
(In flow cytometry, cells or beads pass a laser one at a time.)

For orientation: Kd means a measure of binding affinity in units of concentration. Low readings indicate a tighter complex, high ones a looser complex. Consider “huFc: native human Fc-based negative control [listing 1 of 2 here]”, for which the Kd at FcRn turned out to be 524 ± 13 nM.

In the case of “huFc: native human Fc-based negative control [listing 2 of 2 here]”, the “cellular binding to HCC-1954 cells (in words)” value in assay [1] is reported as “binds only slightly”.

Source of the values: patent publication US20250281633A1, “HER2 TARGETING FC ANTIGEN BINDING FRAGMENT-DRUG CONJUGATES” (MERCK PATENT GMBH, priority 2021, published 2025).
